Measurements reported in US8378104B2 (OSI Pharmaceuticals, LLC, priority 2010, dated 2013).
Structures can show the parent of a compound that is named as a salt.

Key:
p-p38 in HCT-116 cells = experiment: Phospho-p38 Meso Scale ELISA assay, TNFα-stimulated HCT-116 cells; format: cell-based; conditions: Homo sapiens, read-out: mean HCT-116 p-p38 ELISA IC50 (Col. C)
Outline: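 Phospho-p38 measured by Meso Scale ELISA on diluted lysates, captured overnight at 4° C. Before lysis, HCT-116 cells were serum-reduced (1% FCS, 2 h), treated with compounds 4 h at 37° C and stimulated 10 min with 10 ng/mL TNFα final.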

pJNK in HCT-116 cells = experiment: Phospho-JNK (Thr183/Tyr185) Meso Scale ELISA assay, TNFα-stimulated HCT-116 cells; format: cell-based; conditions: Homo sapiens, read-out: mean HCT-116 pJNK ELISA IC50 (Col. B)
Outline: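 Meso Scale ELISA read of phospho-JNK (Thr183/Tyr185) in lysed HCT-116 cells. Cells were serum-reduced to 1% FCS for 2 hours, exposed to test drug for 4 hrs at 37° C, then given 10 ng/mL TNFα (final) for 10 minutes before lysis.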

TAK1-TAB1 fusion protein = target: T1, TAK1-TAB1 fusion protein (Homo sapiens, UniProt O43318); experiment: TAK1 biochemical assay (AlphaScreen, GST-MAP2K7 substrate); conditions: TAK1-TAB1 fusion protein, GST-MAP2K7 substrate; read-out: mean TAK1 IC50 (Col. A)
T1 construct: purchased Carna
T1 sequence (O43318 with tags, fused parts or gaps limits assumed): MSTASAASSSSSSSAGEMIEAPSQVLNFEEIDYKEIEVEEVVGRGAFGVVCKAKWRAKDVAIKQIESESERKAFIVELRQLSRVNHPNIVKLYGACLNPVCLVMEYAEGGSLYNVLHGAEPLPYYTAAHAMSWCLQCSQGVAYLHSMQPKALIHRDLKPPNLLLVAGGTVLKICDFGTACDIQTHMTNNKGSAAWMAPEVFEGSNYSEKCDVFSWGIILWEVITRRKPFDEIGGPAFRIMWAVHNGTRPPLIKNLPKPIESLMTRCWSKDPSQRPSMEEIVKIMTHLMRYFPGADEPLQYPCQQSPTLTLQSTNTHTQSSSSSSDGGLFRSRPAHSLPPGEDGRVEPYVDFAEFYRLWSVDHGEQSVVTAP

Row | SMILES | IC50 (p-p38 in HCT-116 cells) | IC50 (pJNK in HCT-116 cells) | IC50 (TAK1-TAB1 fusion protein)
1 | CC(=O)N1CCC(n2cc(-c3cnc(N)c4oc(-c5ccc6[nH]nnc6c5)cc34)cn2)CC1 [Example 158, 1-(4-{4-[7-amino-2-(1H-benzotriazol-5-yl)furo[2,3-c]pyridin-4-yl]-1H-pyrazol-1-yl}piperidin-1-yl)ethanone] | > 10000 nM | > 10000 nM | < 100 nM
2 | CCN1CCC(n2cc(-c3cnc(N)c4oc(-c5cccc6cnccc56)cc34)cn2)CC1 [Example 78, 4-[1-(1-ethylpiperidin-4-yl)-1H-pyrazol-4-yl]-2-(isoquinolin-5-yl)furo[2,3-c]pyridin-7-amine] | 100 to 1000 nM | 100 to 1000 nM | 100 to 1000 nM
3 | CC(=O)N1CCC(n2cc(-c3cnc(N)c4oc(-c5cccc(O)c5)cc34)cn2)CC1 [Example 132, 1-(4-{4-[7-amino-2-(3-hydroxyphenyl)furo[2,3-c]pyridin-4-yl]-1H-pyrazol-1-yl}piperidin-1-yl)ethanone] | 100 to 1000 nM | 100 to 1000 nM | < 100 nM
4 | Nc1ncc(-c2cc[nH]c2)c2cc(-c3csc4cnccc34)oc12 [Example 376, 4-(1H-pyrrol-3-yl)-2-thieno[2,3-c]pyridin-3-yl-furo[2,3-c]pyridin-7-ylamine] | 1000 to 10000 nM | 100 to 1000 nM | 1000 to 10000 nM
5 | CC(=O)N1CCC(n2cc(-c3cnc(N)c4oc(-c5cccc(CO)c5)cc34)cn2)CC1 [Example 169, 1-[4-(4-{7-amino-2-[3-(hydroxymethyl)phenyl]furo[2,3-c]pyridin-4-yl}-1H-pyrazol-1-yl)piperidin-1-yl]ethanone] | 1000 to 10000 nM | 100 to 1000 nM | 100 to 1000 nM
6 | CC(=O)N1CCC(n2cc(-c3cnc(N)c4oc(-c5cc(C(F)(F)F)cc(C(F)(F)F)c5)cc34)cn2)CC1 [Example 91, 1-[4-(4-{7-amino-2-[3,5-bis(trifluoromethyl)phenyl]furo[2,3-c]pyridin-4-yl}-1H-pyrazol-1-yl)piperidin-1-yl]ethanone] | 1000 to 10000 nM | 1000 to 10000 nM | > 10000 nM
7 | CC(=O)N1CCC(n2cc(-c3cnc(N)c4oc(-c5ccc6c(c5)CNC6=O)cc34)cn2)CC1 [Example 98, 5-{4-[1-(1-acetylpiperidin-4-yl)-1H-pyrazol-4-yl]-7-aminofuro[2,3-c]pyridin-2-yl}-2,3-dihydro-1H-isoindol-1-one] | > 10000 nM | > 10000 nM | > 10000 nM
8 | CN1CCC(n2cc(-c3cnc(N)c4oc(-c5cccc6cnccc56)cc34)cn2)CC1 [Example 77, 2-(isoquinolin-5-yl)-4-[1-(1-methylpiperidin-4-yl)-1H-pyrazol-4-yl]furo[2,3-c]pyridin-7-amine] | 100 to 1000 nM | < 100 nM | 100 to 1000 nM
9 | CC(=O)N1CCC(n2cc(-c3cnc(N)c4oc(-c5c[nH]c6cc(F)ccc56)cc34)cn2)CC1 [Example 213, 1-(4-{4-[7-amino-2-(6-fluoro-1H-indol-3-yl)furo[2,3-c]pyridin-4-yl]-1H-pyrazol-1-yl}piperidin-1-yl)ethanone] | 100 to 1000 nM | 100 to 1000 nM | 100 to 1000 nM
10 | CC(=O)N1CCC(n2cc(-c3cnc(N)c4oc(-c5ccc(O)cc5C)cc34)cn2)CC1 [Example 135, 1-(4-{4-[7-amino-2-(4-hydroxy-2-methylphenyl)furo[2,3-c]pyridin-4-yl]-1H-pyrazol-1-yl}piperidin-1-yl)ethanone] | 100 to 1000 nM | 100 to 1000 nM | 100 to 1000 nM
11 | CC(=O)N1CCC(n2cc(-c3cnc(N)c4oc(-c5cccc6[nH]ccc56)cc34)cn2)CC1 [Example 176, 1-(4-{4-[7-amino-2-(1H-indol-4-yl)furo[2,3-c]pyridin-4-yl]-1H-pyrazol-1-yl}piperidin-1-yl)ethanone] | 100 to 1000 nM | 100 to 1000 nM | < 100 nM
12 | COc1nn([C@H]2CC[C@@H](O)CC2)cc1-c1cnc(N)c2oc(-c3csc4cnccc34)cc12 [Example 303, 4-[4-(7-amino-2-thieno[2,3-c]pyridin-3-yl-furo[2,3-c]pyridin-4-yl)-3-methoxy-pyrazol-1-yl]-cyclohexanol] | 1000 to 10000 nM | 100 to 1000 nM | 100 to 1000 nM
13 | CSc1cccc(-c2cc3c(-c4cnn(C5CCN(C(C)=O)CC5)c4)cnc(N)c3o2)c1 [Example 133, 1-[4-(4-{7-amino-2-[3-(methylsulfanyl)phenyl]furo[2,3-c]pyridin-4-yl}-1H-pyrazol-1-yl)piperidin-1-yl]ethanone] | 1000 to 10000 nM | 1000 to 10000 nM | 1000 to 10000 nM
14 | Nc1ncc(-c2cnn([C@H]3CC[C@H](O)CC3)c2)c2cc(-c3csc4cnc(F)cc34)oc12 [Example 249, trans-4-{4-[7-amino-2-(5-fluorothieno[2,3-c]pyridin-3-yl)furo[2,3-c]pyridin-4-yl]-1H-pyrazol-1-yl}cyclohexanol] | < 100 nM | < 100 nM | < 100 nM
15 | CC(=O)N1CCC(n2cc(-c3cnc(N)c4oc(-c5cc(C)c(O)c(C)c5)cc34)cn2)CC1 [Example 138, 1-(4-{4-[7-amino-2-(4-hydroxy-3,5-dimethylphenyl)furo[2,3-c]pyridin-4-yl]-1H-pyrazol-1-yl}piperidin-1-yl)ethanone] | 1000 to 10000 nM | 100 to 1000 nM | 1000 to 10000 nM
16 | CNc1ncc(-c2cnn([C@H]3CC[C@H](O)CC3)c2)c2cc(-c3csc4cnccc34)oc12 [Example 281, trans-4-{4-[7-(methylamino)-2-(thieno[2,3-c]pyridin-3-yl)furo[2,3-c]pyridin-4-yl]-1H-pyrazol-1-yl}cyclohexanol] | < 100 nM | < 100 nM | < 100 nM
17 | Nc1ncc(-c2cn[nH]c2)c2cc(-c3c[nH]c4cnccc34)oc12 [Example 87, 4-(1H-pyrazol-4-yl)-2-(1H-pyrrolo[2,3-c]pyridin-3-yl)furo[2,3-c]pyridin-7-amine trifluoroacetic acid salt] | 1000 to 10000 nM | 100 to 1000 nM | < 100 nM
18 | Nc1ncc(-c2cnn([C@H]3CC[C@H](O)CC3)c2)c2cc(-c3ccc(F)c4cnsc34)oc12 [Example 230, trans-4-{4-[7-amino-2-(4-fluoro-1,2-benzothiazol-7-yl)furo[2,3-c]pyridin-4-yl]-1H-pyrazol-1-yl}cyclohexanol diformate salt] | 100 to 1000 nM | 100 to 1000 nM | 100 to 1000 nM
19 | CC(=O)N1CCC(n2cc(-c3cnc(N)c4oc(-c5cccc6nnsc56)cc34)cn2)CC1 [Example 224, 1-(4-{4-[7-amino-2-(1,2,3-benzothiadiazol-7-yl)furo[2,3-c]pyridin-4-yl]-1H-pyrazol-1-yl}piperidin-1-yl)ethanone diformate salt] | < 100 nM | < 100 nM | < 100 nM
20 | Nc1ncc(-c2cnn([C@H]3CC[C@H](O)CC3)c2)c2cc(-c3cccc4cnsc34)oc12 [Example 234, trans-4-{4-[7-amino-2-(1,2-benzothiazol-7-yl)furo[2,3-c]pyridin-4-yl]-1H-pyrazol-1-yl}cyclohexanol] | 100 to 1000 nM | < 100 nM | < 100 nM
21 | CC(=O)N1CCC(n2cc(-c3cnc(N)c4oc(-c5ccc(S(C)(=O)=O)cc5)cc34)cn2)CC1 [Example 129, 1-[4-(4-{7-amino-2-[4-(methylsulfonyl)phenyl]furo[2,3-c]pyridin-4-yl}-1H-pyrazol-1-yl)piperidin-1-yl]ethanone] | > 10000 nM | > 10000 nM | > 10000 nM
22 | CC(=O)N1CCC(n2cc(-c3cnc(N)c4oc(-c5csc6cncc(F)c56)cc34)cn2)CC1 [Example 254, 1-(4-{4-[7-amino-2-(4-fluorothieno[2,3-c]pyridin-3-yl)furo[2,3-c]pyridin-4-yl]-1H-pyrazol-1-yl}piperidin-1-yl)ethanone trifluoroacetic Acid Salt] | 100 to 1000 nM | 100 to 1000 nM | < 100 nM
23 | Nc1ncc(-c2cnn(C3CCNCC3)c2)c2cc(-c3csc4cnccc34)oc12 [Example 322, 4-(1-piperidin-4-yl-1H-pyrazol-4-yl)-2-thieno[2,3-c]pyridin-3-yl-furo[2,3-c]pyridin-7-ylamine] | 100 to 1000 nM | 100 to 1000 nM | < 100 nM
24 | Nc1ncc(-c2cnn(C[C@@H](O)CO)c2)c2cc(-c3csc4cnccc34)oc12 [Example 317, (R)-3-[4-(7-amino-2-thieno[2,3-c]pyridin-3-yl-furo[2,3-c]pyridin-4-yl)-pyrazol-1-yl]-propane-1,2-diol] | 1000 to 10000 nM | 1000 to 10000 nM | < 100 nM
25 | Nc1ncc(-c2cnn([C@H]3CC[C@H](O)CC3)c2)c2cc(-c3csc4cnccc34)oc12 [Example 233, trans-4-{4-[7-amino-2-(thieno[2,3-c]pyridin-3-yl)furo[2,3-c]pyridin-4-yl]-1H-pyrazol-1-yl}cyclohexanol] | < 100 nM | < 100 nM | < 100 nM
